Test results reported in patent US11220503B2, “Phthalazine derivatives, preparation method, pharmaceutical composition and usage thereof” (Shanghai SIMR Biotech Co., Ltd., priority 2015, dated 2022).

Target: T1, α5β3γ2 receptor (Homo sapiens, UniProt P18507+P31644)
T1 construct: expressed in transfected cells; host or cells: HEK-293 (stably transfected)
Assay: Supplementary data for cell level screening: new electrophysiology method (I. Lecker et al)
Format: cell-based
Settings: for Inverse agonism efficacy(%): new method, CsCl intracellular solution, GABA 0.1˜0.3 CM, other procedures as previous method; for inverse agonism efficacy of the compound/α5IA inverse agonism efficacy: ratio to the α5IA reference run above in the table (r4 or r29)
Protocol: The inventors used electrophysiological methods to assay the inverse agonist efficacy of the substance to be tested. The detailed procedures are as follows: (1) Different subunits of GABAA receptors were expressed in human embryonic kidney cells 293 (HEK293). The cells were cultured in a culture medium and used as a cell model for screening potential analgesics. The α, β and γ subunits are necessary to form complete functional GABAA receptors. In this example, the inventor has established the following cell model: (a) α5 subunit (protein sequence is GenBank accession number: NP_001158509), β3 subunit (protein sequence is GenBank accession number: NP_068712) and γ2 subunit (protein sequence is GenBank accession number: NP_944494) were expressed in HEK-293 cell lines at the same time, which formed the complete functional GABAA receptors. (2) Cells were stably transfected HEK-293 cells expressing α5β3γ2 receptor, which were labeled by green fluorescent protein (GFP). Cells were grown in 10 cm dishes. The cells were passaged after reaching 80-90% confluence. During passaging, the culture medium was removed and discarded, 3 mL DMEM medium (Gibco™) was added to the dishes, the dishes were shaken slightly, and DMEM was removed and discarded. 3 mL Trypsin (Trypsin-EDTA 0.05%, Gibco™) was added and cells were digested at 37° C. for 3 minutes. Then 3 mL complete growth medium (DMEM+10% horse serum (Gibco™)) was added and the cells at the bottom of the culture dishes were dispersed. The cell suspension were transferred to a 15 mL centrifugal tube (Corning®) and then centrifuged at 200 g for 3 minutes. The supernatant was discarded, 4 mL complete growth medium was added, and the cells were resuspended by gently blowing. The cell suspension was diluted by 1:5 or 1:10 for subculturing. The cell suspension was diluted by 1:12 for electrophysiology experiment, which are added to the 24 well plate (Corning®) which has a glass slide pre-treated with poly-D-lysine. The cells were adhered to the slide before the experiment was conducted. The cells were maintained in culture for no more than 24 hours before use. (3) Compound concentration: for screening, all compounds were diluted to a final concentration of 100 nM. […] The compounds were at the concentration of 1 nM, 10 nM, 50 nM, 100 nM and 1000 nM in dose-inverse agonism efficacy (%) experiment. The whole cell patch clamp technique was used in electrophysiology experiments. The extracellular solution (ECS) contained: 150 mM NaCl, 5 mM KCl, 2.5 mM CaCl2, 1 mM MgCl2, 10 mM HEPES and 10 mM glucose (pH 7.4); […], 5 mM EGTA, 10 mM HEPES ([…] water). The currents were recorded by an EPC-10 amplifier and the PatchMaster software (HEKA). Patch electrodes with a resistance of 5-6 MΩ were pulled from borosilicate glass (Sutter). The diluted compounds were perfused by OCTAFLOWII system. GFP positive and independently growing cells were selected for recording. During recording, the membrane voltage was clamped at −60 mV. During experiment, the cells were firstly perfused with ECS for 20 seconds. When the baseline reached to a stable state, cells were then perfused with GABA solution. Then the current induced by GABA can be detected. After about 20-40 seconds, the current was stable. ECS was switched to compounds solution and the effects of the compounds were detected. At last, the perfusion solution was switched to ECS. The experiment was finished when the post-baseline returned to the pre-baseline before compounds perfusion. Only the data whose pre-baseline and post-baseline are at almost the same level were used for analysis. […] Then, compounds were diluted at the desired concentration in GABA ECS. (4) Currents were analyzed with the PatchMaster (HEKA) software. The GABA currents before (Ipre) and after (Ipost) compounds perfusion were recorded respectively. The efficacies of compounds were calculated by the following equation: inverse agonism efficacy=(Ipost-Ipre)*100/Ipre. N indicates experiment numbers. […]

T1 sequence (P31644 32-462): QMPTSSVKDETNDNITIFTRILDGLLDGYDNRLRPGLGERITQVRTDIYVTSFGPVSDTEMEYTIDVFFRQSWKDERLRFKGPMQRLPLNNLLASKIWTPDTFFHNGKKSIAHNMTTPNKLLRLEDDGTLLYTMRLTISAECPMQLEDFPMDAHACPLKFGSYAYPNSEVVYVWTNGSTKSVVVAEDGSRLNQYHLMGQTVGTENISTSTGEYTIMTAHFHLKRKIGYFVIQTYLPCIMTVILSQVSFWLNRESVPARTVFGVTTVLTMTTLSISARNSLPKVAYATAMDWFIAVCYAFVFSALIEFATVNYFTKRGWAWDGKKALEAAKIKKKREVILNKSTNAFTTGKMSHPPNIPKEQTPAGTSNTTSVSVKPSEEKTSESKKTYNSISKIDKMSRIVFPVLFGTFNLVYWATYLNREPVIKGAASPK
T1 sequence (P28472 26-473 isoform P28472-2 partner limits assumed): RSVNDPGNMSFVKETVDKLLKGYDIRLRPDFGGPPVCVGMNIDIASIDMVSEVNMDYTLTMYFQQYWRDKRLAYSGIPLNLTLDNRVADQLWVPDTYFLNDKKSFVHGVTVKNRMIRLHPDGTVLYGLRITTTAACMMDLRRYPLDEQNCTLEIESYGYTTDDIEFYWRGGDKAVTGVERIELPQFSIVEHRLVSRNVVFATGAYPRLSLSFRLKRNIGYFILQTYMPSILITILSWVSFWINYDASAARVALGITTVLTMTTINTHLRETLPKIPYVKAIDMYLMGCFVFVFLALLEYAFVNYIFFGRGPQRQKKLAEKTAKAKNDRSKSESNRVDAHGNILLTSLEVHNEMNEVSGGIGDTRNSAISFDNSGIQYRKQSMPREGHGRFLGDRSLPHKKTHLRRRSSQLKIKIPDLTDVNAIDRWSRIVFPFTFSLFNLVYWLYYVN
T1 sequence (P18507 40-475): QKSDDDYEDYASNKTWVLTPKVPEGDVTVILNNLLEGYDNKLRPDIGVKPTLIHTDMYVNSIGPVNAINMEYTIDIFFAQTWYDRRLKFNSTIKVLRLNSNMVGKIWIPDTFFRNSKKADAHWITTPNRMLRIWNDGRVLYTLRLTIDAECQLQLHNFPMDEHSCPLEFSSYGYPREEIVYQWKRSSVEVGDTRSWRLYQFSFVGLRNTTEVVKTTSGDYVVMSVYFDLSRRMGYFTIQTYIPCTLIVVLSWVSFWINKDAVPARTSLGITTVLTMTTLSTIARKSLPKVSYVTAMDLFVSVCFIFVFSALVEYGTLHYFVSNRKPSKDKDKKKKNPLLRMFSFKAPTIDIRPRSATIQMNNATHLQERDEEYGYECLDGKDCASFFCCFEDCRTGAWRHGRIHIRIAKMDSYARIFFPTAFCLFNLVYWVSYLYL

| SMILES | Inverse agonism efficacy(%) | inverse agonism efficacy of the compound/α5IA inverse agonism efficacy |
| --- | --- | --- |
| Cc1cc(-c2nnc3c4ccccc4c(OCc4ccc(C(N)=O)cn4)nn23)no1 [Compound 28, 6-(((3-(5-methylisoxazol-3-yl)-[1,2,4]triazolo[3,4-a]phthalazin-6-yl)oxy)methyl)nicotinamide] | −19.86 | 1.143 |
| Cc1cc(-c2nnc3c4ccccc4c(OCc4ccc(C(=O)NCC5CCCO5)cn4)nn23)no1 (stereo not shown) [Compound 26, 6-(((3-(5-methylisoxazol-3-yl)-[1,2,4]triazolo[3,4-a]phthalazin-6-yl)oxy)methyl)-N-((tetrahydrofuran-2-yl)methyl)nicotinamide] | −21.5 | 1.238 |
| Cc1cc(-c2nnc3c4ccccc4c(OCc4ccc(C(=O)NCC(F)(F)F)cn4)nn23)no1 [Compound 30, 6-(((3-(5-methylisoxazol-3-yl)-[1,2,4]triazolo[3,4-a]phthalazin-6-yl)oxy)methyl)-N-(2,2,2-trifluoroethyl)nicotinamide] | −52 | 2.796 |
| COC1CCN(C(=O)c2ccc(COc3nn4c(-c5cc(C)on5)nnc4c4ccccc34)nc2)CC1 [Compound 22, (4-methoxypiperidin-1-yl)(6-(((3-(5-methylisoxazol-3-yl)-[1,2,4]triazolo[3,4-a]phthalazin-6-yl)oxy)methyl)pyridin-3-yl)methanone] | −33 | 1.774 |
| Cc1cc(-c2nnc3c4ccccc4c(OCc4ccc(C(=O)NCCS(C)(=O)=O)cn4)nn23)no1 [Compound 27, 6-(((3-(5-methylisoxazol-3-yl)-[1,2,4]triazolo[3,4-a]phthalazin-6-yl)oxy)methyl)-N-(2-(methylsulfonyl)ethyl)nicotinamide] | −32.1 | 1.726 |
| N#Cc1cc(C(=O)N[C@H]2CCC[C@@H]2O)ccc1COc1nn2c(-c3cc(CO)on3)nnc2c2ccccc12 [Compound 56, 3-cyano-N-((1S,2S)-2-hydroxycyclopentyl)-4-(((3-(5-(hydroxymethyl)isoxazol-3-yl)-[1,2,4]triazolo[3,4-a]phthalazin-6-yl)oxy)methyl)benzamide] | −27.6 | 1.589 |

Results, then the molecule that gave them:

| Inverse agonism efficacy(%) | inverse agonism efficacy of the compound/α5IA inverse agonism efficacy | SMILES |
| --- | --- | --- |
| −19.0625 | 1.098 | Cc1cc(-c2nnc3c4ccccc4c(OCc4ccc(C(=O)NCCN5CCOCC5)cn4)nn23)no1 [Compound 12, 6-(((3-(5-methylisoxazol-3-yl)-[1,2,4]triazolo[3,4-a]phthalazin-6-yl)oxy)methyl)-N-(2-morpholinoethyl)nicotinamide] |
| −22.8 | 1.313 | CS(=O)(=O)NNC(=O)c1ccc(COc2nn3c(-c4cc(CO)on4)nnc3c3ccccc23)nc1 [Compound 53, N′-(6-(((3-(5-(hydroxymethyl)isoxazol-3-yl)-[1,2,4]triazolo[3,4-a]phthalazin-6-yl)oxy)methyl)nicotinoyl)methanesulfonohydrazide] |
| −28.8 | 1.658 | O=C(NC1CC1)c1ccc(COc2nn3c(-c4cc(CO)on4)nnc3c3ccccc23)nc1 [Compound 36, N-cyclopropyl-6-(((3-(5-(hydroxymethyl)isoxazol-3-yl)-[1,2,4]triazolo[3,4-a]phthalazin-6-yl)oxy)methyl)nicotinamide] |
| −26.5 | 1.526 | Cc1cc(-c2nnc3c4ccccc4c(OCc4ccc(C(=O)NC5CC5)cn4)nn23)no1 [Compound 04, N-cyclopropyl-6-(((3-(5-methylisoxazol-3-yl)-[1,2,4]triazolo[3,4-a]phthalazin-6-yl)oxy)methyl) nicotinamide] |
| −17.71 | 1.020 | Cc1cc(-c2nnc3c4ccccc4c(OCc4ccc(C(=O)NC5CCN(C)CC5)cn4)nn23)no1 [Compound 11, 6-(((3-(5-methylisoxazol-3-yl)-[1,2,4]triazolo[3,4-a]phthalazin-6-yl)oxy)methyl)-N-(1-methylpiperidin-4-yl)nicotinamide] |
| −32.5 | 1.871 | O=C(NCC(F)(F)F)c1ccc(COc2nn3c(-c4cc(CO)on4)nnc3c3ccccc23)nc1 [Compound 42, 6-(((3-(5-(hydroxymethyl)isoxazol-3-yl)-[1,2,4]triazolo[3,4-a]phthalazin-6-yl)oxy)methyl)-N-(2,2,2-trifluoroethyl)nicotinamide] |
| −20.8 | 1.196 | O=C(NC1CCOCC1)c1ccc(COc2nn3c(-c4cc(CO)on4)nnc3c3ccccc23)nc1 [Compound 44, 6-(((3-(5-(hydroxymethyl)isoxazol-3-yl)-[1,2,4]triazolo[3,4-a]phthalazin-6-yl)oxy)methyl)-N-(tetrahydro-2H-pyran-4-yl)nicotinamide] |
| −22.2 | 1.278 | O=C(c1ccc(COc2nn3c(-c4cc(CO)on4)nnc3c3ccccc23)nc1)N1CCC1 [Compound 49, azetidin-1-yl-(6-(((3-(5-(hydroxymethyl)isoxazol-3-yl)-[1,2,4]triazolo[3,4-a]phthalazin-6-yl)oxy)methyl)pyridin-3-yl)methanone] |
